# Patent publication US7384943B2, “Substituted chroman derivatives” (AstraZeneca AB, priority 1997, dated 2008)
row,SMILES,melting point
1,"CN1CCN(c2cccc3c2C[C@H](NC(=O)c2ccc(C(F)(F)F)cc2C(F)(F)F)CO3)CC1 [Example 28, (S)-N-[5-(4-Methylpiperazin-1-yl)-3,4-dihydro-2H-1-benzopyran-3-yl]-2,4-bis(trifluoromethyl)benzamide]",202 to 203 °C
2,"CN1CCN(c2cccc3c2C[C@H](NC(=O)c2ccc(N4CCOCC4)cc2)CO3)CC1 [Example 14, (S)-N-[5-(4-Methylpiperazin-1-yl)-3,4-dihydro-2H-1-benzopyran-3-yl]-4-morpholinobenzamide]",210 to 212 °C
3,"CN1CCN(c2cccc3c2C[C@H](NC(=O)c2ccc(C(F)(F)F)cc2)CO3)CC1 [Example 19, (S)-N-[5-(4-Methylpiperazin-1-yl)-3,4-dihydro-2H-1-benzopyran-3-yl]-4-trifluoromethylbenzamide]",212 to 214 °C
4,"CN1CCN(c2cccc3c2C[C@H](NC(=O)c2ccc(N4CCNCC4)cc2)CO3)CC1 [Example 43, (S)-N-[5-(4-Methylpiperazin-1-yl)-3,4 dihydro-2H-1-benzopyran-3-yl]-4-(piperazin-1-yl)benzamide]",> 102 °C
5,"CN1CCN(c2cccc3c2C[C@H](NC(=O)c2ccc(N4CCNC(=O)CC4)cc2)CO3)CC1 [Example 35, (S)-N-[5-(4-Methylpiperazin-1-yl)-3,4-dihydro-2H-1-benzopyran-3-yl]-4-(hexa hydro-1,4-diazepin-5-on-1-yl)benzamide]",244 to 247 °C (dec.)

# Other lines, results leading:
row,melting point,SMILES
1,219 °C (dec.),"CN1CCN(c2cccc3c2C[C@H](NC(=O)c2ccc(C(=O)N(C)C)cc2)CO3)CC1 [Example 46, (S)-N-[5-(4-Methylpiperazin-1-yl)-3,4-dihydro-2H-benzopyran-3-yl)-4-(N,N-dimethylaminocarbonyl)benzamide]"
2,211 to 212 °C,"CN1CCN(c2cccc3c2C[C@H](NC(=O)c2ccc(N4CCN(CCO)CC4)cc2)CO3)CC1 [Example 48, (S)-N-[5-(4-Methylpiperazin-1-yl)-3,4 dihydro-2H-1-benzopyran-3-yl]-4-[4-(2-hydroxyethyl)-piperazin-1-yl]benzamide]"
3,88 °C (dec.),"CC(=O)N1CCN(c2ccc(C(=O)N[C@@H]3COc4cccc(N5CCN(C)CC5)c4C3)cc2)CC1 [Example 44, (S)-N-[5-(4-Methylpiperazin-1-yl)-3,4 dihydro-2H-1-benzopyran-3-yl]-4-(4-acetylpiperazin-1-yl)benzamide]"
4,222 °C (dec.),"CN1CCN(c2cccc3c2C[C@H](NC(=O)c2ccc(C(=O)N4CCOCC4)cc2)CO3)CC1 [Example 45, (S)-N-[5-(4-Methylpiperazin-1-yl)-3,4 dihydro-2H-1-benzopyran-3-yl)-4-(morpholinocarbonyl)benzamide]"
